# Measured values as given in US20230009608A1, “GRK2 INHIBITORS AND USES THEREOF” (Cygnal Therapeutics, Inc., priority 2020, published 2023).
# Read-outs that look alike come from different tables or passages of the source.
# Key:
# GRK2 = target: T1, GRK2 (Homo sapiens, UniProt P25098); experiment: ADPGlo GRK2 Inhibition Assay (Example 8); assay type: biochemical
# T1 construct: purchased SignalChem A14-10G
# T1 sequence (P25098 1-689): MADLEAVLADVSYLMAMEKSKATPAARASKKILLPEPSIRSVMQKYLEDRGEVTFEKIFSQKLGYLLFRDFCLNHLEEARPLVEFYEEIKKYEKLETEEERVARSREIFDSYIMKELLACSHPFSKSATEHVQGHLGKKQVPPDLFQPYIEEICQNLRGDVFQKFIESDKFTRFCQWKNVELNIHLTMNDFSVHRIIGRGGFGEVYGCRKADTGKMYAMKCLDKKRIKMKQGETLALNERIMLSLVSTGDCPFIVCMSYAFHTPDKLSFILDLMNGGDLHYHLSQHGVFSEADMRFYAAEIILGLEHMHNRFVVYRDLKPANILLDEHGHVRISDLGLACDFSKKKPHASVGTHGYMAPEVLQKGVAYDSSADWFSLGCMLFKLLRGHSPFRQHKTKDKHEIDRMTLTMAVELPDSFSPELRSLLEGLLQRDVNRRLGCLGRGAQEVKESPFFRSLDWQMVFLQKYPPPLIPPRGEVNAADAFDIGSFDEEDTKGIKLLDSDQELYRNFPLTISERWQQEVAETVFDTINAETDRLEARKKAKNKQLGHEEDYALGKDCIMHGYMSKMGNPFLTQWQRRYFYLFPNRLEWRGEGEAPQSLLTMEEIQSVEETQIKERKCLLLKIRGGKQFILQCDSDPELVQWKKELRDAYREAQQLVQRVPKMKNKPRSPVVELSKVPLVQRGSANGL
# Protocol: HTS was performed using 1 μM compound.
# Compounds were dissolved in 100% DMSO, serially diluted tree-fold from 100 μM concentration to 46 nM and transferred (50 nL) into assay ready plate.
# Materials: GRK2 was purchased from SignalChem (Cat #A14-10G, Lot #X^645-3). Substrate GRKtide was from SignalChem (Cat #G46-58, Lot #R339-6). ADP-Glo Kinase Assay from Promega (Cat #V9102). Assay buffer consisted of 25 mMv HEPES (pH7.5), 10 mMv MgCl2, 0.01% Tween-20, 1 mM DDT. 384-well white plates were from Greiner […] (Item #784075).
# HTS protocol: Take 384 well plate with 50 nL of compound in columns 3-22/DMSO solution 1-2,23-24. Add 2.5 μL assay buffer to columns 23 and 24 using Thermo Scientific Multidrop Combi Dispenser. Add 2.5 μL of 2× enzyme solution (15 nM in 1× assay buffer) using Thermo Scientific Multidrop Combi Reagent Dispenser to all columns except of 23 and 24. Incubate for 15 minutes. Fill plate with 2.5 μL of 2× substrate mix (20 μM ATP and 0.6 mg/nt GRKtide in Ix assay buffer) using Thermo Scientific Multidrop Combi Reagent Dispenser. Spin 15 seconds at 1000 rpm and incubate for 180 min at room temperature. Add 5 μL ADP-Glo reagent to all the wells. Spin 15 seconds at 1000 rpm and incubate for 40 min at room temperature. Add 10 μL Detection solution to all the wells. Incubate for 30 min at room temperature. Read plate in Luminescent modeon BMG PheraStar FSX (gain=3600).
# Data Analysis: Data were analyzed in GraphPad Prism 8.0.2. Each HTS plate contains compounds in columns 3-22, controls (enzyme, no compound) in columns 1 and 2, and blanks (no enzyme) in columns 23 and 24. HTS percent inhibition was calculated for each compound from the signal in luminescence units and the mean of the plate controls and the mean of the plate blanks using the following equation: % Inhibition=100*(1−((signal-blank mean)/(control mean-blank mean))). At the final stage of data processing, we obtain dose-response curves, tables and SDF-files with the results of screening for each substance.
# [1] = tested on: PAXF1657 control empty vector cell line; experiment: 7-day proliferation assay, PAXF1657 control empty vector cell line (Example 9); assay type: cell-based; details: 168 h; Cell Line: PAXF1657 empty vector (EV) cell line; 7-day; read-out: C: 7-day proliferation assay: IC50 GeoMean
# Protocol: In order to identify compounds specific for GRK2, we generated two isogenic cell line pairs of the pancreatic cancer cell line PAXF1657, a pair of cells stably overexpressing GRK2 cDNA or the control empty vector and a cell line pair of PAXF1657 GRK2 knockout clonal cells versus non-targeting control clonal cells.
# Proliferation Assay: Cellular anti-proliferative activity of compounds was assessed by using the pancreatic cancer cell line, PAXF1657, stably overexpressing GRK2 cDNA or the control empty vector, as well as the parental urinary bladder cancer cell line, 5637. In addition, we also took advantage of GRK2 knockout cell lines that were generated via CRISPR. Cell lines were seeded into tissue culture treated, white-walled, 96-well plates at a density of 500 cells/well in RPMI1640 media supplemented with 10% H.I. FBS and penicillin/streptomycin. Plates were incubated overnight at 37° C., 5% CO2 to allow cells to adhere to the wells. GRK2 inhibitors were added to the cells using a 10-point dilution series with a final concentration ranging from 30 μM-0.0002 μM in 0.3% DMSO. At the time of compound addition, a set of plates, that were not treated with compounds, were collected and cell viability was measured using CellTiter-Glo (Promega). CellTiter-Glo reagent was added to the designed plates and luminescence was measuring using a Biotek Synergy plate reader. The compound treated cells were incubated for 3 days at 37° C., 5% CO2. The media was then aspirated from each well and replaced with fresh media containing GRK2 inhibitors. The compound treated cells were then incubated for an additional 4 days at 37° C., 5% CO2. Cell viability was assessed and at end of the 7-day compound treatment by CellTiterGlo.
# [2] = Enzyme Assay A, ADPGlo (Example 8), read-out: A: Enzymatic GRK2: IC50 (nM) (Example 8)
# [3] = ADPGlo GRK2 enzyme assay, read-out: A: Enzymatic GRK2: IC50 (nM) (Example 8)
# [4] = 7.5 nM GRK2, 10 μM ATP, ADP-Glo, read-out: GRK2 IC50 (nM) (Example 8)
Structure (SMILES),IC50 (GRK2; [2]),IC50 (GRK2; [3]),IC50 (GRK2; [4]),IC50 [1]
O=C(NCc1cnccn1)c1cccc(NCc2nnc(-c3ccncc3)[nH]2)c1,25 nM,–,–,> 10000 nM
O=C(NCc1cncnc1)c1cccc(NCc2nnc(-c3ccncc3)[nH]2)c1,34 nM,–,–,> 10000 nM
CCn1cnnc1CNC(=O)c1cccc(NCc2nnc(-c3ccncn3)n2C)c1,72 nM,–,–,> 10000 nM
Cc1csc(C2(NC(=O)c3cccc(NCc4nnc(-c5ccncn5)n4C)c3)CCC2)n1,140 nM,–,–,445 nM
CC(NC(=O)c1cccc(NCc2nnc(-c3ccncc3)[nH]2)c1)c1cnco1 (stereo not shown),24 nM,–,–,> 10000 nM
Cn1c(CNc2cccc(C(=O)NCc3ccc(C[S+](C)[O-])cc3)c2)nnc1-c1ccncn1 (stereo not shown),170 nM,–,–,> 10000 nM
Cn1c(CNc2cccc(C(=O)NCc3ccccc3S(C)(=O)=O)c2)nnc1-c1ccncn1,–,57.1 nM,–,1950 nM
C#Cc1cc(CNC(=O)c2cccc(NCc3nnc(-c4ccncc4)[nH]3)c2)cc(OS(=O)(=O)F)c1,34.9 nM,–,–,10800 nM
COc1ccccc1C(CO)NC(=O)c1cccc(NCc2nnc(-c3ccncn3)n2C)c1 (stereo not shown),–,45.4 nM,–,> 13000 nM
CCc1nc(CNC(=O)c2cccc(NCc3nnc(-c4ccncc4)[nH]3)c2)c(C)o1,8.4 nM,–,–,866 nM
CC(NC(=O)c1cccc(NCc2nnc(-c3ccncc3)[nH]2)c1)c1ccon1 (stereo not shown),20 nM,–,–,> 10000 nM
Cn1c(CNc2cccc(C(=O)NCc3ccccc3S(=O)(=O)NC(C)(C)C)c2)nnc1-c1ccncn1,–,54 nM,–,4290 nM
Cc1ccccc1[C@H](C#N)NC(=O)c1cccc(NCc2nnc(-c3ccncn3)n2C)c1,–,4.63 nM,–,30.4 nM
Cn1c(CNc2cccc(C(=O)NCc3ccccc3S(=O)(=O)N3CCCCC3)c2)nnc1-c1ccncn1,–,50.5 nM,–,–
C#COc1ccc(C(=O)c2ccc(OCCCCC(=O)NCCOCCOCCOc3cccc(CNC(=O)c4cccc(NCc5nnc(-c6ccncn6)n5C)c4)c3)cc2)cc1,–,> 1000 nM,–,–
CCc1n[nH]c(=O)c(CNC(=O)c2cccc(NCc3nnc(-c4ccncn4)n3C)c2)c1CC,–,504 nM,–,–
COc1ccccc1[C@@H](NC(=O)c1cccc(NCc2nnc(-c3ccncn3)n2C)c1)c1noc(C)n1,–,333 nM,–,–
Cn1c(CNc2cccc(C(=O)NCc3cnn(-c4ccccc4)n3)c2)nnc1-c1ccncn1 [compound 55],–,–,6.5 nM,–
Cc1cc2c(cc1CNC(=O)c1cccc(NCc3nnc(-c4ccncc4F)n3C)c1)OCCO2,–,8 nM,–,–
Cn1c(CNc2cccc(C(=O)NC(c3ccccc3)C(C)(C)CO)c2)nnc1-c1ccncn1 (stereo not shown),880 nM,–,–,–

# Second part, led by results:
IC50 (GRK2; [2]),IC50 (GRK2; [3]),IC50 (GRK2; [4]),Structure (SMILES),IC50 [1]
–,12.6 nM,–,COc1cccc(CNC(=O)c2cccc(NCc3nnc(-c4ccncn4)n3C)c2)c1C,> 12600 nM
–,7.43 nM,–,CC1Oc2ccccc2C1NC(=O)c1cccc(NCc2nnc(-c3ccncn3)n2C)c1 (stereo not shown),1790 nM
–,52.8 nM,–,CC(C)C(NC(=O)c1cccc(NCc2nnc(-c3ccncn3)n2C)c1)c1ccccn1 (stereo not shown),1900 nM
24 nM,–,–,CC(NC(=O)c1cccc(NCc2nnc(-c3ccncn3)n2C)c1)c1nccn1C (stereo not shown),591 nM
13 nM,–,–,CC(NC(=O)c1cccc(NCc2nnc(-c3ccncn3)n2C)c1)c1cn[nH]c1 (stereo not shown),16800 nM
54 nM,–,–,COC[C@H](NC(=O)c1cccc(NCc2nnc(-c3ccncn3)n2C)c1)c1ccccn1,> 10000 nM
290 nM,–,–,COc1cccnc1CNC(=O)c1cccc(NCc2nnc(-c3ccncn3)n2C)c1,> 10000 nM
–,35.6 nM,–,Cn1c(CNc2cccc(C(=O)NC(CCO)c3ccccc3F)c2)nnc1-c1ccncn1 (stereo not shown),536 nM
37 nM,–,–,CN1CCC(NC(=O)c2cccc(NCc3nnc(-c4ccncn4)n3C)c2)c2ccccc21 (stereo not shown) [drawing 321],9340 nM
–,73.6 nM,–,CCOc1cccc(CNC(=O)c2cccc(NCc3nnc(-c4ccncn4)n3C)c2)c1,> 30000 nM
–,118 nM,–,Cn1c(CNc2cc(C(=O)N[C@H]3COc4cc(F)ccc43)ccn2)nnc1-c1ccncn1,1930 nM
31 nM,–,–,Cn1c(CNc2cccc(C(=O)NCc3c(Cl)cncc3Cl)c2)nnc1-c1ccncn1,4320 nM
1.47 nM,–,–,O=C(N[C@@H]1COCc2ccccc21)c1cccc(NCc2nnc(-c3ccncn3)n2CCO)c1,592 nM
26 nM,–,–,Cc1nn(C)c(C)c1CNC(=O)c1cccc(NCc2nnc(-c3ccncn3)n2C)c1,> 10000 nM
–,14.8 nM,–,CN(C)c1ccccc1CNC(=O)c1cccc(NCc2nnc(-c3ccncn3)n2C)c1,1610 nM
100 nM,–,–,Cn1c(CNc2cccc(C(=O)N[C@H]3COCc4ccccc43)c2)nnc1-c1ccncc1,–

IC50 (GRK2; [2]),IC50 (GRK2; [3]),IC50 (GRK2; [4]),Structure (SMILES),IC50 [1]
–,176 nM,–,Cn1c(CNc2cccc(C(=O)NCc3cccnc3N3CCOCC3)c2)nnc1-c1ccncn1,–
–,340 nM,–,COc1cccc(CCNC(=O)c2cccc(NCc3nnc(-c4ccncn4)n3C)c2)c1,–
–,271 nM,–,CCc1ccc(CNC(=O)c2cccc(NCc3nnc(-c4ccncn4)n3C)c2)nc1,–
–,–,1.1 nM,Cc1cccc(C(CO)NC(=O)c2cccc(NCc3nnc(-c4ccncn4)n3C)c2)c1 (stereo not shown) [compound 39],–
–,–,9.4 nM,Cn1c(CNc2cccc(C(=O)NCc3ccc4c(c3)CCN4)c2)nnc1-c1ccncn1 [compound 57],–
–,194 nM,–,Cn1c(CNc2cccc(C(=O)NC3CCCS(=O)(=O)c4ccccc43)c2)nnc1-c1ccncn1 (stereo not shown),–
–,209 nM,–,CC(O)C(NC(=O)c1cccc(NCc2nnc(-c3ccncn3)n2C)c1)c1ccccc1F (stereo not shown),–
–,133 nM,–,CNc1cccnc1CNC(=O)c1cccc(NCc2nnc(-c3ccncn3)n2C)c1,–
95 nM,–,–,Cc1cccc([C@H](C)NC(=O)c2cccc(NCc3nnc(-c4ccncn4)n3C)c2)n1,–
–,–,12 nM,COc1cccc([C@@H](C)NC(=O)c2cccc(NCc3nnc(-c4ccncn4)n3C)c2)c1 [compound 27],–
–,–,2.8 nM,Cc1ccc2ncc(CNC(=O)c3cccc(NCc4nnc(-c5ccncn5)n4C)c3)n2c1 [compound 44],–
–,189 nM,–,CCn1ccnc1C(C)NC(=O)c1cccc(NCc2nnc(-c3ccncn3)n2C)c1 (stereo not shown),–
97 nM,–,–,Cn1c(CNc2cccc(C(=O)N[C@@H](CF)c3ccccc3)c2)nnc1-c1ccncn1,–
–,146 nM,–,Cn1c(CNc2cccc(C(=O)NCc3cccnc3-n3cccn3)c2)nnc1-c1ccncn1,–
–,203 nM,–,Cn1c(CNc2cccc(C(=O)NCc3ccc(O)nc3)c2)nnc1-c1ccncn1,–
